The solubility (kinetic) is the concentration staying in solution when a stock, usually in DMSO, is diluted into the medium. As usually defined, the EC50 is the concentration that produces a half-maximal response.

Data on 19 compounds can be found in patent US20090203577A1 (EXELIXIS, INC., priority 2005, published 2009).

One data set in a line: physchem. The settings on record: pH 7.4, aqueous buffer, kinetic from dmso stock. The method, then:
The kinetic solubility of test compounds in buffer was evaluated using a 96 well filtration plate format. A 500 μM assay solution in PBS, pH7.4 (or other assay buffer, as needed) was generated form a DMSO stock solution (up to 10 mM). Samples were transferred to a 96 Millipore MultiScreen HTS 96-well Filter plate (Cat# MSSLBPC10) mixed by shaking for 1.5 hours and processed by filtration prior to quantitation by HPLC-UV. Amiodarone and testosterone were used as reference controls.

Data set [1] deals with T1, human farnesoid X receptor (Homo sapiens, UniProt Q96RI1).
T1 construct: CMX-farnesoid X receptor (full length human farnesoid X receptor); expressed in transfected cells; host or cells: CV-1 African Green Monkey Kidney cells
T1 sequence (Q96RI1 1-472 isoform Q96RI1-2): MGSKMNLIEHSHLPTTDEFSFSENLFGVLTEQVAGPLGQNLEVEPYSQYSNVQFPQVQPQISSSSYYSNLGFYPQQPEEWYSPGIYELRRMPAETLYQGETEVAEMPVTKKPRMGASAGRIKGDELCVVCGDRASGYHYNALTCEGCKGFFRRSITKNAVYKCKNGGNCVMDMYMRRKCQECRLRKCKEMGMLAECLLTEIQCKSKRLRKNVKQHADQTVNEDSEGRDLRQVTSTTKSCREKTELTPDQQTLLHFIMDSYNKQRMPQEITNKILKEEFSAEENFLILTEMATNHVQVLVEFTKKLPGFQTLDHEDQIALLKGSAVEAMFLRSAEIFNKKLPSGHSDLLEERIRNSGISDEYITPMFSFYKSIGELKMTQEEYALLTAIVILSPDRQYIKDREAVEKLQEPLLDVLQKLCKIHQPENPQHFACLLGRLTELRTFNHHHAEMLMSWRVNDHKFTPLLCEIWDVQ
T1 sequence (P19793 1-462 partner): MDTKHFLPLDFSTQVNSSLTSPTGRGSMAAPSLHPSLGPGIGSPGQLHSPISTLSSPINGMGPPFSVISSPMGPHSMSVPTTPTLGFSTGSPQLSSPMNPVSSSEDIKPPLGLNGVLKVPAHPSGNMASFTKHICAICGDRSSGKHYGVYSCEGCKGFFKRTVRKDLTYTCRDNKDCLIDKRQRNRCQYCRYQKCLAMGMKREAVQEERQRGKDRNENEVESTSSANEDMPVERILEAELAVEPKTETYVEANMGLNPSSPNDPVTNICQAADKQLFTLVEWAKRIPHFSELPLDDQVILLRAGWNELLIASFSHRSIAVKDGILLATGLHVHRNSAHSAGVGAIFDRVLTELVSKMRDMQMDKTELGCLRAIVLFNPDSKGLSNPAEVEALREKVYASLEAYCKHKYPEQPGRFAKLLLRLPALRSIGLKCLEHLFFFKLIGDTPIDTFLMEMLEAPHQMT
Nature of the data set: FXR in vitro assays (farnesoid X receptor/ECREx7 co-transfection assay, TR-FRET assay), Table I. The class given is cell-based. The settings on record: for EC50: agonist activity, one or more of the in vitro assays, read-out: EC50; for Emax: read-out: % Efficacy. The procedure, abridged: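 CV-1 monkey kidney cells transfected for an FXR/ECREx7 luciferase co-transfection reporter; luciferase read 18-20 h later in lysates. 8-point dose-response at ½-log spacing, 4 wells per point; EC50/IC50 from four-parameter Hill fit, averaged over at least 3 independent experiments.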

Converted amounts (≈) assume the structure as drawn. Some results are limits rather than exact numbers.

As to `CC(C)OC(=O)C1=CN(C(=O)c2ccc(F)c(C(F)(F)F)c2)CC(C)(C)c2c1[nH]c1ccccc21` [Example 83, 1-methylethyl 3-{[4-fluoro-3-(trifluoromethyl)phenyl]car-bonyl}-1,1-dimethyl-1,2,3,6-tetrahydroazepino[4,5-b]indole-5-carboxylate], in “physchem”, the solubility (kinetic) at 1.5 h was 1 to 10 µM (≈ 0.488 to 4.88 µg/mL). In data set [1], the EC50 lay in the range of 10 to 100 nM and the Emax is above 100%.
For the compound `CC(=O)N1CCN(Cc2cccc(C(=O)N3C=C(C(=O)OC(C)C)c4[nH]c5ccccc5c4C(C)(C)C3)c2)CC1` [Example 146, 1-methylethyl 3-({3-[(4-acetylpiperazin-1-yl)methyl]phenyl}carbonyl)-1,1-dimethyl-1,2,3,6-tetrahydroazepino[4,5-b]indole-5-carboxylate], the solubility (kinetic) at 1.5 h in the data set “physchem” is 1 to 10 µM (≈ 0.543 to 5.43 µg/mL). Further, in data set [1], the EC50 is 100 to 1000 nM and the Emax is above 100%.
`CC(C)OC(=O)C1=CN(C(=O)N2CCN(C)CC2)CC(C)(C)c2c1[nH]c1ccccc21` [Example 16] returned a solubility (kinetic) at 1.5 h in “physchem” of 0.1 to 1 µM (≈ 0.0425 to 0.425 µg/mL). Further, in data set [1], the EC50 lay within 100 to 1000 nM and the Emax is above 100%.
`CC(C)OC(=O)C1=CN(C(=O)NC2CCCNC2)CC(C)(C)c2c1[nH]c1ccccc21` (stereo not drawn) [Example 56, 1-methylethyl 1,1-dimethyl-3-[(piperidin-3-ylamino)carbonyl]-1,2,3,6-tetrahydro azepino[4,5-b]indole-5-carboxylate]: the solubility (kinetic) at 1.5 h in the data set “physchem” was above 10 µM. In data set [1], the concentration giving a half-maximal response (EC50) lay in the range of 1000 to 10000 nM and the Emax was below 40%.
`CC(C)OC(=O)C1=CN(C(=O)c2ccccc2OC(F)(F)F)CC(C)(C)c2c1[nH]c1ccccc21` [Example 70, 1-methylethyl 1,1-dimethyl-3-({2-[(trifluoromethyl)oxy]phenyl}carbonyl)-1,2,3,6-tetrahydroazepino[4,5-b]indole-5-carboxylate] came in with a kinetic solubility at 1.5 h in the data set “physchem” of 1 to 10 µM (≈ 0.486 to 4.86 µg/mL). Also, in data set [1], the EC50 was 100 to 1000 nM and the Emax is above 100%.
As to `CC(C)OC(=O)C1=CN(C(=O)c2ccc(Cl)cc2)CC(C)(C)c2c1[nH]c1ccccc21` [Example 82, 1-methylethyl 3[(4-chlorophenyl)carbonyl]-1,1-dimethyl-1,2,3,6-tetrahydroazepino[4,5-b]indole-5-carboxylate], the solubility (kinetic) at 1.5 h in “physchem” is 1 to 10 µM (≈ 0.437 to 4.37 µg/mL). For the same compound, in data set [1], the EC50 was in the range of 10 to 100 nM and the Emax was above 100%.
The corresponding values for `CC(C)OC(=O)C1=CN(C(=O)c2ccc(C(F)(F)F)cc2F)CC(C)(C)c2c1[nH]c1ccccc21` [Example 131, 1-methylethyl 3-{[2-fluoro-4-(trifluoromethyl)phenyl]car-bonyl}-1,1-dimethyl-1,2,3,6-tetrahydroazepino[4,5-b]indole-5-carboxylate] are above 10 µM, 100 to 1000 nM and above 100%.
Compound `CC(C)OC(=O)C1=CN(C(=O)c2cc(C(F)(F)F)cc(C(F)(F)F)c2)CC(C)(C)c2c1[nH]c1ccccc21` [Example 135, 1-methylethyl 3-{[3,5-bis(trifluoromethyl)phenyl]carbonyl}-1,1-dimethyl-1,2,3,6-tetrahydroazepino[4,5-b]indole-5-carboxylate] had a kinetic solubility at 1.5 h in the data set “physchem” of 1 to 10 µM (≈ 0.538 to 5.38 µg/mL). Further, in data set [1], the EC50 fell in the range of 10 to 100 nM and the Emax is above 100%.
In the data set “physchem”, `CC(C)OC(=O)C1=CN(C(=O)N2CCCN(C)CC2)CC(C)(C)c2c1[nH]c1ccccc21` [Example 43, 1-methyl 1,1-dimethyl-3-[(4-methyl-1,4-diazepan-1-yl)carbonyl]-1,2,3,6-tetrahydroazepino[4,5-b]indole-5-carboxylate] came in with a kinetic solubility at 1.5 h above 10 µM. Also, in data set [1], the EC50 was in the range of 100 to 1000 nM and the Emax was above 100%.
In “physchem”, `CC(C)OC(=O)C1=CN(C(=O)c2ccc(C(F)(F)F)c(F)c2F)CC(C)(C)c2c1[nH]c1ccccc21` [Example 138, 1-methylethyl 3-{[2,3-difluoro-4-(trifluoromethyl)phenyl]car-bonyl}-1,1-dimethyl-1,2,3,6-tetrahydroazepino[4,5-b]indole-5-carboxylate] registered a solubility (kinetic) at 1.5 h of 0.1 to 1 µM (≈ 0.0506 to 0.506 µg/mL). Moreover, in data set [1], the EC50 lay in the range of 10 to 100 nM and the Emax is above 100%.
The compound `CC(C)NC(=O)C1CN(C(=O)c2ccc(F)c(F)c2)CC(C)(C)c2c1[nH]c1ccccc21` (stereo not drawn) [Example 90, 3-[(3,4-difluorophenyl)carbonyl]-1,1-dimethyl-N-(1-methylethyl)-1,2,3,4,5,6-hexahydroazepino[4,5-b]indole-5-carboxamide] registered a kinetic solubility at 1.5 h in the data set “physchem” above 10 µM. Further, in data set [1], the EC50 was in the range of 1000 to 10000 nM and the Emax was above 100%.
As for `CCN(CC)CCN1CCN(C(=O)N2C=C(C(=O)OC(C)C)c3[nH]c4ccccc4c3C(C)(C)C2)CC1` [Example 38, 1-methylethyl 3-({4-[2-(diethylamino)ethyl]piperazin-1-yl}carbonyl)-1,1-dimethyl-1,2,3,6-tetrahydroazepino[4,5-b]indole-5-carboxylate], in the data set “physchem”, the kinetic solubility at 1.5 h is above 10 µM. In data set [1], the EC50 fell in the range of 1000 to 10000 nM and the Emax was 60 to 80%.
In the data set “physchem”, `CC(C)OC(=O)C1=CN(C(=O)N2CCC(N3CCCC3)CC2)CC(C)(C)c2c1[nH]c1ccccc21` [Example 28, 1-methylethyl 1,1-dimethyl-3[(4-pyrrolidin-1-ylpiperidin-1-yl)carbonyl]-1,2,3,6-tetrahydroazepino[4,5-b]indole-5-carboxylate] returned a kinetic solubility at 1.5 h above 10 µM. In addition, in data set [1], the EC50 is 1000 to 10000 nM and the Emax is 80 to 100%.
The corresponding values for `CC(C)CCC(=O)N1C=C(C(=O)OC(C)C)c2[nH]c3ccccc3c2C(C)(C)C1` [Example 34, 1-methylethyl 1,1-dimethyl-3-(4-methylpentanoyl)-1,2,3,6-tetrahydro azepino [4,5-b]indole-5-carboxylate] are above 10 µM, 10 to 100 nM and above 100%.
For the compound `Cc1cccc(C(=O)N2C=C(C(=O)OC(C)C)c3[nH]c4ccccc4c3C(C)(C)C2)c1` [Example 86, 1-methylethyl 1,1-dimethyl-3-[(3-methylphenyl)carbonyl]-1,2,3,6-tetrahydroazepino[4,5-b]indole-5-carboxylate], the solubility (kinetic) at 1.5 h in the data set “physchem” is 1 to 10 µM (≈ 0.417 to 4.17 µg/mL). In addition, in data set [1], the EC50 was in the range of 1 to 10 nM and the Emax was above 100%.
As to `CC(C)OC(=O)C1=CN(C(=O)N2CCCC(CN(C)C)C2)CC(C)(C)c2c1[nH]c1ccccc21` (stereo not drawn) [Example 48, 1-methylethyl 3-({3-[(dimethylamino)methyl]piperidin-1-yl}carbonyl)-1,1-dimethyl-1,2,3,6-tetrahydroazepino[4,5-b]indole-5-carboxylate], the solubility (kinetic) at 1.5 h in “physchem” was above 10 µM. Besides, in data set [1], the EC50 lay in the range of 1000 to 10000 nM and the Emax is above 100%.
In turn, `CCN1CCN(C(=O)N2C=C(C(=O)OC(C)C)c3[nH]c4cc(F)ccc4c3C(C)(C)C2)CC1` [Example 36, 1-methylethyl 3-[(4-ethylpiperazin-1-yl)carbonyl]-8-fluoro-1,1-dimethyl-1,2,3,6-tetrahydroazepino[4,5-b]indole-5-carboxylate] returned a kinetic solubility at 1.5 h in “physchem” above 10 µM. Moreover, in data set [1], the EC50 was 10 to 100 nM and the Emax is above 100%.
`CCNC(=O)N1CCN(Cc2cccc(C(=O)N3C=C(C(=O)OC(C)C)c4[nH]c5ccccc5c4C(C)(C)C3)c2)CC1` [Example 185, 1-methylethyl 3-{[3-({4-[(ethylamino)carbonyl]piper-azin-1-yl}methyl)phenyl]carbonyl}-1,1-dimethyl-1,2,3,6-tetrahydroazepino[4,5-b]indole-5-carboxylate] gave a kinetic solubility at 1.5 h in “physchem” of 1 to 10 µM (≈ 0.572 to 5.72 µg/mL). In data set [1], the EC50 fell in the range of 100 to 1000 nM and the Emax is above 100%.
On to `CC(C)OC(=O)C1=CN(C(=O)N2CCN(C(C)C)CC2)CC(C)(C)c2c1[nH]c1ccccc21` [Example 30, 1-methylethyl 1,1-dimethyl-3-{[4-(1-methylethyl)piperazin-1-yl)carbonyl}-1,2,3,6-tetrahydroazepino[4,5-b]indole-5-carboxylate], for which the solubility (kinetic) at 1.5 h in the data set “physchem” was above 10 µM. Further, in data set [1], the EC50 lay within 100 to 1000 nM and the Emax was above 100%.
